Measured values: PubChem BioAssay (NCI)
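96-well plates; 48 h exposure; 5 concentrations. Endpoints by linear interpolation between flanking doses. Not reached: highest tested concentration assigned. TGI: total growth inhibition.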

Assays:
Experiment in all cases: growth of human tumour cells (NCI), 48 h
[1] = system: A549 NSCLC
[2] = system: TK-10 renal
[3] = system: OVCAR-5 ovarian
[4] = system: HOP-92 NSCLC
[5] = system: K-562 leukemia
[6] = system: IGROV1 ovarian
[7] = system: NCI-H522 lung
[8] = system: EKVX NSCLC
[9] = system: M14 melanoma
[10] = system: BT-549 breast

For `O=C(Oc1c(Cl)cc(C2(c3cc(Cl)c(OC(=O)c4ccccc4)c(Cl)c3)CCCCC2)cc1Cl)c1ccccc1`, the TGI [1] was 37.1 µM, the TGI [2] was 30.4 µM and the TGI [3] was 27.4 µM. For the same molecule, the TGI [4] was 21.8 µM, the TGI [5] was 31 µM and the TGI [6] was 23.4 µM. It also gave a TGI [7] of 29.3 µM, a TGI [8] of 24.9 µM and a TGI [9] of 30.3 µM. For the same molecule, the TGI [10] was 27.9 µM.

`O=C(CSCC(=O)N/N=C/c1ccccc1)N/N=C\c1ccccc1` showed a TGI [1] greater than 100 µM, a TGI [2] greater than 100 µM and a TGI [3] greater than 100 µM. It also gave a TGI [4] greater than 100 µM, a TGI [5] greater than 100 µM and a TGI [6] greater than 100 µM. The TGI [7] was greater than 100 µM, the TGI [8] was greater than 100 µM and the TGI [9] was greater than 100 µM. It also gave a TGI [10] of 18.9 µM.

With `NC(CCOCCP(=O)(O)CCC1C=CC=CC1)C(=O)O` (stereo not given) the TGI [1] was greater than 100 µM, the TGI [2] was greater than 100 µM and the TGI [3] was greater than 100 µM. The TGI [4] was greater than 100 µM, the TGI [5] was greater than 100 µM and the TGI [6] was greater than 100 µM. It also gave a TGI [7] greater than 100 µM, a TGI [8] greater than 100 µM and a TGI [9] greater than 100 µM. The TGI [10] was greater than 100 µM.
